By Kd is commonly meant the concentration at which binding is half-saturated. As a reminder, the MIC is the least concentration at which growth counts as inhibited. As usually defined, the pKa is the negative logarithm of the acid dissociation constant. As a reminder, the IC50 is the midpoint of a concentration-inhibition curve.

In brackets after ≈: the same amount, converted by molar mass. Like-named read-outs stand apart in the source and are kept apart here. Bounds are passed on as bounds.

Consider 6 compounds from patent publication US20180273573A1, “INHIBITORS OF MENAQUINONE BIOSYNTHESIS” (Memorial Sloan-Kettering Cancer Center, priority 2015, published 2018).

One data set deals with wild-type E. coli MenE (Escherichia coli, UniProt P37353). Put plainly: Direct fluorescent binding assay (intrinsic tryptophan fluorescence). On the procedure:
Difluoroindandiol 109 was titrated into a solution of wild-type E. coli MenE and the change in fluorescence was measured using a Quanta Master fluorimeter at excitation and emission wavelengths of 280 and 332 nm, respectively. Data was analyzed using the Morrison equation.
Instead, to determine the Kd for 109, we used a direct binding assay in which the change in the intrinsic tryptophan fluorescence of ecMenE was monitored (see FIG. 14 for binding isotherm and data). […] The solution was stirred continuously, and fluorescence measurements were taken with a Quanta Master fluorimeter using excitation and emission wavelengths of 280 and 332 nm, respectively. Slit widths were optimized to 4 and 2 nm for excitation and emission, respectively. Data were corrected for the inner filter effect and then fit to the following equation using MATLAB: […]

In another data set the test system is B. subtilis (ATCC 6051). Kind of data set: MIC, Alamar blue assay. It counts as cell-based. Conditions: Bacillus subtilis, ATCC6051. In general terms: Alamar Blue is a resazurin reagent that responds to reducing activity.
The next data set concerns M. tuberculosis (H37Rv). Put plainly: MIC, Alamar blue assay. It counts as cell-based. As to conditions: Mycobacterium tuberculosis.
The subject of data set [1] is MRSA, S. aureus (ATCC BAA-1762). Kind of data set: MIC, Alamar blue assay. As to conditions: Staphylococcus aureus. It counts as cell-based, methicillin-resistant S. aureus.
For another data set, the system named is E. coli. Put plainly: MIC, Alamar blue assay. The data set is classed as cell-based, E. coli (K-12). Conditions: Escherichia coli; Table E2; ~90% cell death.
Data set [2] has as its system menaquinone levels in S. aureus ATCC BAA-1762 (MRSA). Put plainly: Menaquinone levels by LC-MS/MS after lipid extraction. It counts as cell-based. As to conditions: for decrease in menaquinone-8: MRSA, FIG. 9, two independent experiments. The text has this: The 1959 Blight/Dyer lipid extraction protocol was followed. Menaquinone levels were quantified by LC-MS/MS using standard curves generated with MK4 and MK9. A distribution of MKs are present in untreated MRSA with MK8 most abundant.
Standard error shown for two independent experiments. *p≤0.05, **p≤0.01.
To provide direct insight into the mode of action of the MenE inhibitors, we analyzed the effect of OSB-AMS on menaquinone-levels in S. aureus by tandem MS (FIG. 2), as follows. Cultures of S. aureus ATCC BAA-1762 (5 mL in Synthetic Broth medium with 10% glucose) were incubated overnight in a 37° C. shaker in the presence or absence of OSB-AMS (15.6 μg/mL final concentration). The Blight and Dyer (1959) lipid extraction protocol was used to isolate the menaquinone-containing fraction from the cells.^(5) Briefly, 0.75 mL of 1:2 (v/v) CHCl3:MeOH was added to 0.2 mL of culture. The mixture was vortexed thoroughly, and 0.25 mL of CHCl3 was added followed by further vortexing after which 0.25 mL of H2O was added. The mixture was then vortexed and centrifuged at 1000 rpm for 5 minutes at room temperature. The bottom phase was recovered, transferred to a glass vial and 200 μL was analyzed by APCI LC-MS/MS in positive ion mode using a Thermo TSQ Quantum Access (Thermo-Fisher) Triple Quadrupole Mass Spectrometer. Menaquinone levels were quantified using standard established for MK4 and MK9. Samples were introduced into the mass spectrometer by flow injection at 100 μL/min with 2:1 MeOH/CHCL3 as the solvent. Multiple Reaction Monitoring (MRM) was performed at 30 eV. MK4, MK5 and MK6 were quantified using the standard curve for MK4 whereas MK7, MK8, and MK9 were quantified using MK9.

Data set [3] deals with B. subtilis, MRSA, M. tuberculosis and E. coli. Put plainly: Antibacterial activity and MK4 growth rescue, statements over all bacteria tested. It counts as cell-based. As to conditions: for increase in MIC values when complemented with exogenous menaquinone-4: B. subtilis, MRSA, M. tuberculosis.
The target in a further data set is E. coli MenE (ecMenE) (Escherichia coli, UniProt P37353). Kind of data set: MenE-MenB coupled assay (enzyme inhibition, catalytic parameters). As to conditions: read-out: E. coli MenE IC50; Table E6.
Chain of E. coli MenE (ecMenE) (P37353 whole entry): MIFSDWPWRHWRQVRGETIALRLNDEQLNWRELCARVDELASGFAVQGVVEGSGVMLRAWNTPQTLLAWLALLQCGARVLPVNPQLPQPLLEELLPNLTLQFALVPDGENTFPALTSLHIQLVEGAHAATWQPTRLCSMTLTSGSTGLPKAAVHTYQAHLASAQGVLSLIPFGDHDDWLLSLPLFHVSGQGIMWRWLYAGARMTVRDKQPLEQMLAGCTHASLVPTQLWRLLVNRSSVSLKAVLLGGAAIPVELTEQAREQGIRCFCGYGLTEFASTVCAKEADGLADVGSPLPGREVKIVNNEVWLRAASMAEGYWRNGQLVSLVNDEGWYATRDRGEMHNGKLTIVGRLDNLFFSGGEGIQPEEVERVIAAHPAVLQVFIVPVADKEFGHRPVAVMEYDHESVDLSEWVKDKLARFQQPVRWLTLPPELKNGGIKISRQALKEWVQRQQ
Another data set addresses wild-type ecMenE (Escherichia coli, UniProt P37353).
The mark [4] stands for this setting: Table E2, ~90% cell death, read-out: B. subtilis MIC.
Setting [5] is: Table E2, ~90% cell death, read-out: M. tuberculosis MIC.
[6] abbreviates: Table E2, ~90% cell death, read-out: MRSA MIC.
Where [7] appears, read: Table E5, with addition of exogenous menaquinone-4 (10 μg/mL), read-out: B. subtilis MIC (in parentheses).
The mark [8] stands for this setting: Table E5, without menaquinone-4, read-out: B. subtilis MIC.
[9] abbreviates: Table E5, with addition of exogenous menaquinone-4 (10 μg/mL), read-out: M. tuberculosis MIC (in parentheses).
Where [10] appears, read: Table E5, without menaquinone-4, read-out: M. tuberculosis MIC.
The mark [11] stands for this setting: Table E5, with addition of exogenous menaquinone-4 (10 μg/mL), read-out: MRSA MIC (in parentheses).
[12] abbreviates: Table E5, without menaquinone-4, read-out: MRSA MIC.

Chain of wild-type ecMenE (P37353 whole entry): as above
Chain of wild-type E. coli MenE (P37353 whole entry): as above
Procedure for E. coli MenE (ecMenE): Measurements were performed in triplicate for each compound.
Analysis of the catalytic efficiency (kcat/KM) of the mutant enzymes compared to wild type MenE was performed using the MenE-MenB coupled assay described above.
Procedure for wild-type ecMenE: The direct binding of inhibitors to MenE was quantified using isothermal titration calorimetry (ITC). Measurements were made with a MicroCal VP-ITC instrument at 25° C. Inhibitor stock solutions (1 mM in NaHPO4 buffer pH 7.4 containing 150 mM NaCl and 1 mM MgCl2) were titrated in 4 μL increments into a 50 μM solution of MenE in pH 7.4 20 mM sodium phosphate buffer containing 150 mM sodium chloride and 1 mM magnesium chloride. The data were fit to a single binding site model with the Origin software package.

Consider `Nc1ncnc2c1ncn2[C@@H]1O[C@H](COS(=O)(=O)NC(=O)CCC2(O)c3ccccc3C(O)C2(F)F)[C@@H](O)[C@H]1O` (mixture of isomers) [Compound 109], for which binding on wild-type E. coli MenE was characterised by a dissociation constant (Kd) of 120 ± 23 nM. The MIC was 31.2 µg/mL (≈ 53.3 µM) in the data set with B. subtilis (ATCC 6051) (setting [4]), 15.6 µg/mL (≈ 26.6 µM) in the data set on M. tuberculosis (H37Rv) (setting [5]), 15.6 µg/mL (≈ 26.6 µM) in [1] (setting [6]) and above 500 µg/mL in the data set with E. coli. In “physchem”, this compound displayed a pKa of 11.5.
For the compound `Nc1ncnc2c1ncn2[C@@H]1O[C@H](COS(=O)(=O)NC(=O)CCC2(O)c3ccccc3C(O)C2(F)F)[C@@H](O)[C@H]1O` (mixture of isomers) [Compound 2], the MIC with B. subtilis (ATCC 6051) (setting [7]) is 62.5 µg/mL; in the data set on B. subtilis (ATCC 6051) (setting [8]) it was 15.6 µg/mL; with M. tuberculosis (H37Rv) (setting [9]) it was 62.5 µg/mL; with M. tuberculosis (H37Rv) (setting [10]) it was 15.6 µg/mL; in [1] (setting [11]), 62.5 µg/mL; in data set [1] (setting [12]) it was 15.6 µg/mL. In [2], the “decrease in menaquinone-8” value is listed as 31%. The “increase in MIC values when complemented with exogenous menaquinone-4” value in data set [3] was “four-fold increase”.
`Nc1ncnc2c1ncn2[C@@H]1O[C@H](COS(=O)(=O)NC(=O)CC[C@]2(O)c3ccccc3[C@@H](O)C2(F)F)[C@@H](O)[C@H]1O` [(1S,3R)-2, 5′-O—(N-[3″-((1S,3R)-2′″,2′″-difluoro-1′″,3′″-dihydroxy-1′″-indanyl)propanoyl]-sulfamoyl)adenosine]: the MIC with B. subtilis (ATCC 6051) (setting [7]) turned out to be 31.2 µg/mL (≈ 53.2 µM); with B. subtilis (ATCC 6051) (setting [8]) it was 15.6 µg/mL (≈ 26.6 µM); with M. tuberculosis (H37Rv) (setting [9]), 62.5 µg/mL (≈ 107 µM); in the data set with M. tuberculosis (H37Rv) (setting [10]), 31.2 µg/mL (≈ 53.2 µM); in data set [1] (setting [11]), 31.2 µg/mL (≈ 53.2 µM); in [1] (setting [12]), 31.2 µg/mL (≈ 53.2 µM). Moreover, the “rescue by exogenous menaquinone-4” value in data set [3] (cultures complemented with exogenous menaquinone-4) is listed as “Some rescue”.
As to `Nc1ncnc2c1ncn2[C@@H]1O[C@H](COS(=O)(=O)NC(=O)CCC(=O)c2ccccc2-c2c(O)c(=O)c2=O)[C@@H](O)[C@H]1O` (stereo in doubt) [Compound 106], the MIC is 250 µg/mL (≈ 415 µM) in the data set on B. subtilis (ATCC 6051) (setting [4]), above 500 µg/mL in the data set with M. tuberculosis (H37Rv) (setting [5]), above 500 µg/mL in [1] (setting [6]) and above 500 µg/mL in the data set on E. coli. Further, the “cellular activity against any bacteria tested” value in [3] is reported as “did not show cellular activity”. Further, the pKa in “physchem” is 1.3.
In the case of `Nc1ncnc2c1ncn2[C@@H]1O[C@H](COS(=O)(=O)NC(=O)CC[C@@]2(O)c3ccccc3[C@H](O)C2(F)F)[C@@H](O)[C@H]1O` [(1R,3S)-2, 5′-O—(N-[3″-((1R,3S)-2′″,2′″-difluoro-1′″,3′″-dihydroxy-1′″-indanyl)propanoyl]sulfamoyl)adenosine], the MIC in the data set with B. subtilis (ATCC 6051) (setting [7]) came out at 31.2 µg/mL (≈ 53.2 µM); in the data set with B. subtilis (ATCC 6051) (setting [8]), 15.6 µg/mL (≈ 26.6 µM); in the data set on M. tuberculosis (H37Rv) (setting [9]), 62.5 µg/mL (≈ 107 µM); with M. tuberculosis (H37Rv) (setting [10]) it was 15.6 µg/mL (≈ 26.6 µM); in [1] (setting [11]), 31.2 µg/mL (≈ 53.2 µM); in [1] (setting [12]) it was 15.6 µg/mL (≈ 26.6 µM). Also, the “increase in MIC values when complemented with exogenous menaquinone-4” value in data set [3] is on record as 2- to 4 fold. The IC50 at E. coli MenE (ecMenE) is 5000 nM.
Regarding `Nc1ncnc2c1ncn2[C@@H]1O[C@H](COS(=O)(=O)NC(=O)CCC(=O)c2ccccc2C(=O)O)[C@@H](O)[C@H]1O` [OSB-AMS, o-succinylbenzoate-adenenosinemonosulfamate, reference compound], the MIC is 62.5 µg/mL (≈ 114 µM) with B. subtilis (ATCC 6051) (setting [4]), 125 µg/mL (≈ 227 µM) in the data set with M. tuberculosis (H37Rv) (setting [5]), 31.2 µg/mL (≈ 56.8 µM) in data set [1] (setting [6]) and above 500 µg/mL in the data set on E. coli. The “decrease in menaquinone-8” value in data set [2] was 2.5 fold. In addition, the “decrease in the levels of the menaquinones” value in data set [2] (OSB-AMS 15.6 μg/mL, overnight, 37° C.) is on record as 3-5 fold. In addition, the Kd on wild-type ecMenE was determined as 44 ± 11 nM. At wild-type ecMenE (ITC, 25° C., pH 7.4), this compound had a ΔG of -10.0 kcal/mol. At wild-type ecMenE (ITC, 25° C., pH 7.4), this compound yielded a ΔH of -2.0 ± 0.1 kcal/mol. In the data set “physchem”, this compound registered a pKa of 4.
